According to patent US12686673B2 (Blueprint Medicines Corporation, priority 2020, dated 2026):
Structures can show the parent of a compound that is named as a salt.

Tests used:
Format in all cases: cell-based
[1] = target: EGFR (A767_dupASV) expressing Ba/F3 stable cell line (Homo sapiens, UniProt P00533, DUP767-769, cells depend on it); test: Cellular proliferation (Alamar Blue) assay, EGFR A767_dupASV Ba/F3; conditions: 72 hr, read-out: A767 IC50
Outline: (§1)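 Each stable Ba/F3 line, cultured in RPMI with 10% FBS at 15,000 cells per well, received a threefold compound series (final top 10 μM, bottom 0.0005 μM) for 72 hr at 37 degree Celsius, then Alamar Blue for 3 h.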

[2] = target: HER2 (A775_G776insYVMA) expressing Ba/F3 stable cell line (Homo sapiens, UniProt P04626, DUP772-775, cells depend on it); test: Cellular proliferation (Alamar Blue) assay, HER2 A775_G776insYVMA Ba/F3; conditions: 72 hr, read-out: YVMA IC50
Sequence of HER2 (A775_G776insYVMA) expressing Ba/F3 stable cell line (P04626 with tags, fused parts or gaps DUP772-775): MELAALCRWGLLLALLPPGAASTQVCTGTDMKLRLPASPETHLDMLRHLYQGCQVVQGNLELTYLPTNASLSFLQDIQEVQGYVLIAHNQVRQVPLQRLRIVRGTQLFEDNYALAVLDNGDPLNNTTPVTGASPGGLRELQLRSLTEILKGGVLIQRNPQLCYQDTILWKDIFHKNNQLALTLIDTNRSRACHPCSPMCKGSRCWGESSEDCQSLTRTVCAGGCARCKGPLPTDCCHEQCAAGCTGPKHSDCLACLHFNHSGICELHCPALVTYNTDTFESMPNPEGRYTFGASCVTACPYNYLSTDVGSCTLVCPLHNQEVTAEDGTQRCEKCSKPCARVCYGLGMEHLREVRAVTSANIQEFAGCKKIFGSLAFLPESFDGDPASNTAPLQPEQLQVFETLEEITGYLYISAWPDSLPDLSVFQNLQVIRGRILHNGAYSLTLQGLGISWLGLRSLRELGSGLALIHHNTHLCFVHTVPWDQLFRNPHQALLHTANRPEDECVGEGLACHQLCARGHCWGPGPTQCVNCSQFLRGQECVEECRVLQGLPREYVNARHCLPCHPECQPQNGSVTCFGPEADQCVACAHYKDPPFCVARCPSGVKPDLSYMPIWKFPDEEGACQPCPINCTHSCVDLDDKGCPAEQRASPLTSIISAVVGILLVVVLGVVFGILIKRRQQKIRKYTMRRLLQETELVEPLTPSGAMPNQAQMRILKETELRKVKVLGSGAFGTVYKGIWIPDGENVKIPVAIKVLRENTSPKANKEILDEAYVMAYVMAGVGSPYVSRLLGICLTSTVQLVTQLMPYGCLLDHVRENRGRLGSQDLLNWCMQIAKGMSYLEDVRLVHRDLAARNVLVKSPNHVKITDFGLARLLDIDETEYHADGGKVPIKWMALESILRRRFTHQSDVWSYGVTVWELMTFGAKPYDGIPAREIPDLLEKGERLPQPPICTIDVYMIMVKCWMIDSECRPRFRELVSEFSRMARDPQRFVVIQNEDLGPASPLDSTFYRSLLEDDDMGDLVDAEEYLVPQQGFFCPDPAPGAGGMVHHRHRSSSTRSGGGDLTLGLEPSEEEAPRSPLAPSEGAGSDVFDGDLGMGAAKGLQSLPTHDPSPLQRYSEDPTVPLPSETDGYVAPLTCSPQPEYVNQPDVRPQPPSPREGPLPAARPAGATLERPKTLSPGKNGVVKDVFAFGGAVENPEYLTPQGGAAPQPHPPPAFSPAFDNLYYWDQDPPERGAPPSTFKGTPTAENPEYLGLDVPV
Outline: as §1

A431 cells = test: Cellular proliferation (Alamar Blue) assay, A431; conditions: Homo sapiens, A-431; A431 cells, Alamar Blue, 72 hr; read-out: A431 IC50
[3] = target: EGFR(D770_N771insSVD) expressing Ba/F3 stable cell line (Homo sapiens, UniProt P00533, DUP768-770, cells depend on it); test: Cellular proliferation (Alamar Blue) assay, EGFR D770_N771insSVD Ba/F3; conditions: 72 hr, read-out: D770 IC50
Sequence of EGFR(D770_N771insSVD) expressing Ba/F3 stable cell line (P00533 with tags, fused parts or gaps DUP768-770): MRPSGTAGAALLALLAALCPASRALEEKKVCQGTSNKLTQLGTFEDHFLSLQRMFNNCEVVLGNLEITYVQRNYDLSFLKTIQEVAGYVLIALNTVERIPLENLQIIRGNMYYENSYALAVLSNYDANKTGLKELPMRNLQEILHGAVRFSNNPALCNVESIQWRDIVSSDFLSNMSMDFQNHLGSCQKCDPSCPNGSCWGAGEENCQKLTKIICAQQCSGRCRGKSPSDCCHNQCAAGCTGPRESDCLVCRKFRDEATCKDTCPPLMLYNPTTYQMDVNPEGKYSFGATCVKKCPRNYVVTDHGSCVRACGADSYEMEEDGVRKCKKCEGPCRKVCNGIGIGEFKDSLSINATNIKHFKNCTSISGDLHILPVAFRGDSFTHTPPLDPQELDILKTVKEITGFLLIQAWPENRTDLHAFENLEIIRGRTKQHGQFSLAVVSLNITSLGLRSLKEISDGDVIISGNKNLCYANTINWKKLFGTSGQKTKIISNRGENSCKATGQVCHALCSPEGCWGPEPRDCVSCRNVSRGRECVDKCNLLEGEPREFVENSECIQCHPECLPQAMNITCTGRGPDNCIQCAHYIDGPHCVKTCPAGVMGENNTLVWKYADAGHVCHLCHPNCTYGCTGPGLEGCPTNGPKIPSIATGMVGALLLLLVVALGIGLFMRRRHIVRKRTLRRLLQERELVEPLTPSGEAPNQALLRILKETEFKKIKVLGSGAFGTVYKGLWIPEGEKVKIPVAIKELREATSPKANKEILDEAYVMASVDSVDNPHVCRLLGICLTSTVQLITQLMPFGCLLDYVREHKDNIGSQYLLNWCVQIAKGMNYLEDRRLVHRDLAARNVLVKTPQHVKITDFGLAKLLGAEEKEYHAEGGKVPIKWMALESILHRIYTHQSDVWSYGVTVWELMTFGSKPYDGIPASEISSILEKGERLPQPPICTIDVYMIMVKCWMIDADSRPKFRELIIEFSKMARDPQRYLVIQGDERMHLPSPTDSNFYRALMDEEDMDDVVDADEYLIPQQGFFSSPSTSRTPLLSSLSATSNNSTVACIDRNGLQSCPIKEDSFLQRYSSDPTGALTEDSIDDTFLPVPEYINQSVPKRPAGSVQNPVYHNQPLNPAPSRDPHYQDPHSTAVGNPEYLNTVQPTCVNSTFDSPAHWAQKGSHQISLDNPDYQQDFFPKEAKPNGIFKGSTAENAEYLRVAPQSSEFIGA
Outline: as §1

Sequence of EGFR (A767_dupASV) expressing Ba/F3 stable cell line (P00533 with tags, fused parts or gaps DUP767-769): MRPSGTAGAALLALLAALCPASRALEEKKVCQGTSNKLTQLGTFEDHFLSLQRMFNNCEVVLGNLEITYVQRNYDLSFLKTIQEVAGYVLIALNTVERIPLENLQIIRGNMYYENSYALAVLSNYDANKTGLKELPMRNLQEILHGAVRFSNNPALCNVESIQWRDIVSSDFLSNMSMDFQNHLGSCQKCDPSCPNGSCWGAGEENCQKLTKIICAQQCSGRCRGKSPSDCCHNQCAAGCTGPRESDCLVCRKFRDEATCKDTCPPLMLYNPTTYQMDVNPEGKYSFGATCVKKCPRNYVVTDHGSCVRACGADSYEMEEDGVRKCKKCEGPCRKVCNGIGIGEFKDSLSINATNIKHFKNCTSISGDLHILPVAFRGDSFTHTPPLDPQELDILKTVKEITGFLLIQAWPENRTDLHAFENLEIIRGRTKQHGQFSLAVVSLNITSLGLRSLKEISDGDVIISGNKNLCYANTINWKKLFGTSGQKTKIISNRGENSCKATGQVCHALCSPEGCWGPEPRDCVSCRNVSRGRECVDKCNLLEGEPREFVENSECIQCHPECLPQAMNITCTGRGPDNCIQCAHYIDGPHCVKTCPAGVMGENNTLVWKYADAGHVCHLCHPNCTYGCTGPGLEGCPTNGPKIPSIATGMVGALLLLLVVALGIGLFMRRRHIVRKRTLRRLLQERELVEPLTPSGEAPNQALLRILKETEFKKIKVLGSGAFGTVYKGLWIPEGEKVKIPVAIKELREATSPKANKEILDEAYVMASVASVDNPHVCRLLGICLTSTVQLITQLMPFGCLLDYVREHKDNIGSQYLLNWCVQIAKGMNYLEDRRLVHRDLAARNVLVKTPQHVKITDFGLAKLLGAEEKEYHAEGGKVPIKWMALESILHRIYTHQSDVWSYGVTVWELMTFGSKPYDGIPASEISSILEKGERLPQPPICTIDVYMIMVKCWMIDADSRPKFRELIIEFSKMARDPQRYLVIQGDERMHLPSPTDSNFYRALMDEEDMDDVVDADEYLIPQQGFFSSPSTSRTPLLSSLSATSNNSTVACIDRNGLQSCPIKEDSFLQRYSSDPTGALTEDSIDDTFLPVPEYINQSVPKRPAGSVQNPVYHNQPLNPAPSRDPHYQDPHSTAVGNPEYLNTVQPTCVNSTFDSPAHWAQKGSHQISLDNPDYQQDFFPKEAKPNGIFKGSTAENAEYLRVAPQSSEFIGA

Structure (SMILES) | GI50 [1] [µM] | GI50 [2] [µM] | IC50 (A431 cells) [µM] | GI50 [3] [µM]
C=CC(=O)Nc1ccc(F)c(Nc2nc(Nc3cnn(C)c3)ncc2-c2cccc(OC(F)(F)F)c2)c1 [Compound 96, N-(4-fluoro-3-((2-((1-methyl-1H-pyrazol-4-yl)amino)-5-(3-(trifluoromethoxy)phenyl)pyrimidin-4-yl)amino)phenyl)acrylamide trifluoroacetate] | 0.79 | 7.73 | 1.07 | 0.345
C=CC(=O)Nc1ccc(F)c(Nc2nc(Nc3cnn(C)c3)ncc2-c2ccc3[nH]ccc3c2)c1 [Compound 97, N-(4-fluoro-3-{[5-(1H-indol-5-yl)-2-[(1-methyl-1H-pyrazol-4-yl)amino]pyrimidin-4-yl]amino}phenyl)prop-2-enamide] | 0.862 | 0.403 | 0.586 | 0.546
C=CC(=O)Nc1ccc(F)c(Nc2nc(Nc3cnn(C)c3)ncc2-c2ccc(-c3ccccc3)cc2)c1 [Compound 127, N-(3-((5-([1,1′-biphenyl]-4-yl)-2-((1-methyl-1H-pyrazol-4-yl)amino)pyrimidin-4-yl)amino)-4-fluorophenyl)acrylamide] | 0.565 | 5.28 | 0.258 | 0.971
C=CC(=O)Nc1ccc(F)c(Nc2nc(Nc3cnn(C)c3)ncc2-c2ccc(C3CC3)cc2)c1 [Compound 128, N-(3-((5-(4-cyclopropylphenyl)-2-((1-methyl-1H-pyrazol-4-yl)amino)pyrimidin-4-yl)amino)-4-fluorophenyl)acrylamide trifluoroacetate] | 0.114 | 0.654 | 0.064 | 0.101
C=CC(=O)Nc1ccc(F)c(Nc2nc(Nc3cnn(C)c3)ncc2-c2ccc(CC(F)(F)F)cc2)c1 [Compound 130, N-(4-fluoro-3-((2-((1-methyl-1H-pyrazol-4-yl)amino)-5-(4-(2,2,2-trifluoroethyl)phenyl)pyrimidin-4-yl)amino)phenyl)acrylamide trifluoroacetate] | 0.027 | 0.083 | 0.008 | 0.026
C=CC(=O)Nc1ccc(F)c(Nc2nc(Nc3cnn(C)c3)ncc2-c2ccc3cccnc3c2)c1 [Compound 131, N-(4-fluoro-3-((2-((1-methyl-1H-pyrazol-4-yl)amino)-5-(quinolin-7-yl)pyrimidin-4-yl)amino)phenyl)acrylamide] | 0.758 | 0.348 | 0.365 | 0.202
C=CC(=O)Nc1ccc(F)c(Nc2nc(Nc3cnn(C)c3)ncc2-c2ccn3ccnc3c2)c1 [Compound 132, N-(4-fluoro-3-((5-(imidazo[1,2-a]pyridin-7-yl)-2-((1-methyl-1H-pyrazol-4-yl)amino)pyrimidin-4-yl)amino)phenyl)acrylamide] | 0.368 | 0.151 | 0.504 | 0.203
C=CC(=O)Nc1ccc(F)c(Nc2nc(Nc3cnn(C)c3)ncc2-c2cccc3ccccc23)c1 [Compound 136, N-(4-fluoro-3-((2-((1-methyl-1H-pyrazol-4-yl)amino)-5-(naphthalen-1-yl)pyrimidin-4-yl)amino)phenyl)acrylamide trifluoroacetate] | 0.299 | 0.412 | 0.04 | 0.106
C=CC(=O)Nc1ccc(F)c(Nc2nc(Nc3cnn(C)c3)ncc2-c2ccncc2)c1 [Compound 137, N-(4-fluoro-3-((2-((1-methyl-1H-pyrazol-4-yl)amino)-5-(pyridin-4-yl)pyrimidin-4-yl)amino)phenyl)acrylamide] | 0.325 | 0.751 | > 10 | 0.254
C=CC(=O)Nc1ccc(F)c(Nc2nc(Nc3cn(C)nc3C(F)(F)F)ncc2-c2ccc(C(F)(F)F)cc2)c1 [Compound 146, N-(4-fluoro-3-((2-((1-methyl-3-(trifluoromethyl)-1H-pyrazol-4-yl)amino)-5-(4-(trifluoromethyl)phenyl)pyrimidin-4-yl)amino)phenyl)acrylamide trifluoroacetate] | 0.279 | 6.13 | 0.274 | 0.342
C=CC(=O)Nc1ccc(F)c(Nc2nc(Nc3cnn(C)c3)ncc2-c2ccc3ccccc3c2)c1 [Compound 149, N-(4-fluoro-3-((2-((1-methyl-1H-pyrazol-4-yl)amino)-5-(naphthalen-2-yl)pyrimidin-4-yl)amino)phenyl)acrylamide trifluoroacetate] | 0.747 | 0.501 | 0.469 | 0.308
C=CC(=O)Nc1cccc(Nc2nc(Nc3cnn(C)c3)nnc2Cl)c1 [Compound 156, N-(3-((6-chloro-3-((1-methyl-1H-pyrazol-4-yl)amino)-1,2,4-triazin-5-yl)amino)phenyl)acrylamide] | 2.44 | 1.52 | 8.02 | 1.89
C=CC(=O)Nc1cccc(Oc2nc(Nc3cnn(C)c3)nnc2Cl)c1 [Compound 157, N-(3-((6-chloro-3-((1-methyl-1H-pyrazol-4-yl)amino)-1,2,4-triazin-5-yl)oxy)phenyl)acrylamide] | > 10 | 3.66 | > 10 | > 10
C=CC(=O)Nc1cccc(Oc2nc(Nc3cnn(C)c3)cnc2C)c1 [Compound 158, N-(3-((3-methyl-6-((1-methyl-1H-pyrazol-4-yl)amino)pyrazin-2-yl)oxy)phenyl)acrylamide] | > 10 | > 10 | > 10 | > 10
C=CC(=O)Nc1ccc(F)c(-c2nc(Nc3cnn(C)c3)ncc2Cl)c1 [Compound 159, N-(3-{5-chloro-2-[(1-methyl-1H-pyrazol-4-yl)amino]pyrimidin-4-yl}-4-fluorophenyl)prop-2-enamide] | 2.78 | > 10 | > 10 | 9.55
CN(C)C/C=C/C(=O)Nc1ccc(F)c(-c2nc(Nc3cnn(C)c3)ncc2Cl)c1 [Compound 160, (E)-N-(3-(5-chloro-2-((1-methyl-1H-pyrazol-4-yl)amino)pyrimidin-4-yl)-4-fluorophenyl)-4-(dimethylamino)but-2-enamide] | > 10 | > 10 | > 10 | > 10
C=CC(=O)Nc1ccc(F)c(Nc2nc(Nc3cnn(C)c3)ncc2C#Cc2ccccc2)c1 [Compound 161, N-[4-fluoro-3-({2-[(1-methyl-1H-pyrazol-4-yl)amino]-5-(2-phenylethynyl)pyrimidin-4-yl}amino)phenyl]prop-2-enamide] | 0.289 | 0.897 | > 10 | 0.288
CN(C)C/C=C/C(=O)Nc1ccc(F)c(Nc2nc(Nc3cnn(C)c3)ncc2C#Cc2ccccc2)c1 [Compound 162, (E)-4-(dimethylamino)-N-(4-fluoro-3-((2-((1-methyl-1H-pyrazol-4-yl)amino)-5-(phenylethynyl)pyrimidin-4-yl)amino)phenyl)but-2-enamide] | 0.656 | 1.88 | 2.85 | 1.85
C=CC(=O)Nc1ccc(C(=O)Nc2ccccc2)c(Nc2ccnc(Nc3cnn(C)c3)n2)c1 [Compound 164, 4-acrylamido-2-((2-((1-methyl-1H-pyrazol-4-yl)amino)pyrimidin-4-yl)amino)-N-phenylbenzamide] | > 10 | 9.49 | > 10 | > 10
C=CC(=O)Nc1ccc(Cl)c(Nc2ccnc(Nc3cnn(C)c3)n2)c1 [Compound 165, N4-(5-amino-2-chlorophenyl)-N2-(1-methyl-1H-pyrazol-4-yl)pyrimidine-2,4-diamineprop-2-enoyl chloride] | > 10 | 9.93 | > 10 | > 10
C=CC(=O)Nc1ccc(F)c(Oc2nc(Nc3cnn(C)c3)ncc2Cl)c1 [Compound 166, N-(3-((5-chloro-2-((1-methyl-1H-pyrazol-4-yl)amino)pyrimidin-4-yl)oxy)-4-fluorophenyl)acrylamide] | 1.25 | 1.69 | > 10 | 1.32
C=CC(=O)Nc1ccc(F)c(Oc2nc(Nc3cnn(CCO)c3)ncc2Cl)c1 [Compound 167, N-(3-((5-chloro-2-((1-(2-hydroxyethyl)-1H-pyrazol-4-yl)amino)pyrimidin-4-yl)oxy)-4-fluorophenyl)acrylamide] | 1.33 | 1.75 | > 10 | 2.15
C=CC(=O)Nc1ccc(F)c(Oc2nc(Nc3cnn(C4CCN(C)CC4)c3)ncc2Cl)c1 [Compound 168, N-(3-((5-chloro-2-((1-(1-methylpiperidin-4-yl)-1H-pyrazol-4-yl)amino)pyrimidin-4-yl)oxy)-4-fluorophenyl)acrylamide] | 0.904 | 2.26 | > 10 | 0.929
C=CC(=O)Nc1ccc(OC)c(Oc2nc(Nc3cnn(C4CCN(C)CC4)c3)ncc2Cl)c1 [Compound 170, N-(3-((5-chloro-2-((1-(1-methylpiperidin-4-yl)-1H-pyrazol-4-yl)amino)pyrimidin-4-yl)oxy)-4-methoxyphenyl)acrylamide] | > 10 | 9.71 | > 10 | > 10
C=CC(=O)Nc1ccc(OC)c(Oc2nc(Nc3cnn(C)c3)ncc2Cl)c1 [Compound 172, N-[3-({5-chloro-2-[(1-methyl-1H-pyrazol-4-yl)amino]pyrimidin-4-yl}oxy)-4-methoxyphenyl] prop-2-enamide] | > 10 | > 10 | > 10 | > 10
